The test concerns the target SARS-CoV-2 Papain like protease (PLpro) (Severe acute respiratory syndrome coronavirus 2 (2019-nCoV) (SARS-CoV-2), UniProt P0DTD1). Nature of the test: Papain Like Protease (PLpro) biochemical assay with profluorogenic substrate Z-RLRGG-AMC. The note with it: SARS-CoV-2 PLpro 6.25 nM, 25 μM Z-RLRGG-AMC substrate, 60 minute reaction; read-out: IC50.
For the compound `Cc1cc(CN(C)Cc2cscn2)ccc1C(=O)N[C@H](C)c1cc(-c2cnn(C)c2)nc2ccccc12` [Example 266, (R)-2-methyl-4-((methyl(thiazol-4-ylmethyl)amino)methyl)-N-(1-(2-(1-methyl-1H-pyrazol-4-yl)quinolin-4-yl)ethyl)benzamide], the 50% inhibitory concentration (IC50) is 24 nM. For `Cc1cc(C(C)OCc2cscn2)ncc1C(=O)N[C@H](C)c1cc(-c2cnn(C)c2)nc2ccccc12` (stereo partly drawn) [Example 321, 4-methyl-N—((R)-1-(2-(1-methyl-1H-pyrazol-4-yl)quinolin-4-yl)ethyl)-6-(1-(thiazol-4-ylmethoxy)ethyl)nicotinamide], the half-inhibitory concentration (IC50) was determined as 3 nM. As for `COCC(OCc1cscn1)c1ccc(C(=O)NC2(c3cc(-c4cnn(C)c4)nc4ccccc34)CC2)c(C)c1` (single isomer, unassigned) [Example 325], the IC50 came out at 1 nM. Consider `Cc1ccc(N2CCNCC2)cc1C(=O)N[C@H](C)c1cc(-c2cnn(C)c2)nc2ccccc12` [Example 55, (R)-2-methyl-N-(1-(2-(1-methyl-1H-pyrazol-4-yl)quinolin-4-yl)ethyl)-5-(piperazin-1-yl)benzamide], for which the IC50 was 18 nM. `Cc1cc(CNCc2cncn2C)ccc1C(=O)N[C@H](C)c1cc(-c2cnn(C)c2)nc2ccccc12` [Example 221, (R)-2-methyl-4-((((1-methyl-1H-imidazol-5-yl)methyl)amino)methyl)-N-(1-(2-(1-methyl-1H-pyrazol-4-yl)quinolin-4-yl)ethyl)benzamide]: the half-inhibitory concentration (IC50) is 15 nM. As for `Cc1cc(C(O)C(=O)Nc2cscn2)ccc1C(=O)N[C@H](C)c1cc(-c2cnn(C)c2)nc2ccccc12` (stereo partly drawn) [Example 301, 4-(1-hydroxy-2-oxo-2-(thiazol-4-ylamino)ethyl)-2-methyl-N-((R)-1-(2-(1-methyl-1H-pyrazol-4-yl)quinolin-4-yl)ethyl)benzamide], the figure is 1 nM.

In the case of `COc1c(-c2cnn(C)c2)cc(C(C)NC(=O)c2cc(CN)ccc2C)c2ccccc12` (centres unmarked) [Example 205], the IC50 was found to be 43 nM. Regarding `Cc1ccccc1C(=O)NC(C)c1cc(CN)nc2ccccc12` (stereo in doubt) [Example 158, N-{(1R)-1-[2-(aminomethyl)quinolin-4-yl]-ethyl}-2-methylbenzamide], the IC50 was 5480 nM. As to `CNC(=O)c1cc(-c2cc([C@@H](C)NC(=O)c3cc(CN)ccc3C)c3ccccc3n2)cn1C` [Example 257, (R)-4-(4-(1-(5-(aminomethyl)-2-methylbenzamido)ethyl)quinolin-2-yl)-N,1-dimethyl-1H-pyrrole-2-carboxamide], the 50% inhibitory concentration (IC50) amounted to 22 nM. To `Cc1ccc(NC(=O)[C@H]2CCCCN2)cc1C(=O)NC(C)c1cc(-c2cn[nH]c2)cc2ccccc12` (stereo partly drawn) [Example 51, (2R)—N-(3-((1-(3-(1H-pyrazol-4-yl)naphthalen-1-yl)ethyl)carbamoyl)-4-methylphenyl)piperidine-2-carboxamide] belongs 19 nM; to `Cc1cc(C(=O)NCc2ncsc2C)ccc1C(=O)N[C@H](C)c1cc(-c2cnn(C)c2)nc2ccccc12` [Example 203], 2 nM. As for `Cc1ccc(CN)cc1C(=O)N[C@H](C)c1cc(-c2cnn(C)c2)cc2ccccc12` (single isomer, unassigned) [Example 9], the figure is 3920 nM; as for `Cc1ccccc1C(=O)NC(C)c1cc(NC2CCCOC2)nc2ccccc12` (centres unmarked) [Example 147], 909 nM; as for `Cc1ccccc1C(=O)N[C@H](C)c1cc(OCC2CCOC2)nc2ccccc12` (stereo partly drawn) [Example 43, 2-methyl-N-((1R)-1-(2-((tetrahydrofuran-3-yl)methoxy)quinolin-4-yl)ethyl)benzamide], 3080 nM. For `Cc1cc(CC(=O)Nc2cscn2)ccc1C(=O)NC1(c2cc(-c3cnn(C)c3)nc3ccccc23)CC1` [Example 313, 2-methyl-N-(1-(2-(1-methyl-1H-pyrazol-4-yl)quinolin-4-yl)cyclopropyl)-4-(2-oxo-2-(thiazol-4-ylamino)ethyl)benzamide], the half-inhibitory concentration (IC50) was 4 nM.

Take `Cc1cc(CC(=O)Nc2ncsc2C)ccc1C(=O)N[C@H](C)c1cc(-c2cnn(C)c2)nc2ccccc12` [Example 298, (R)-2-methyl-N-(1-(2-(1-methyl-1H-pyrazol-4-yl)quinolin-4-yl)ethyl)-4-(2-((5-methylthiazol-4-yl)amino)-2-oxoethyl)benzamide]: the IC50 is less than 1 nM.

On to `Cc1ccc2c(C3(NC(=O)c4ccc(COCc5cocn5)cc4C)CC3)cc(-c3cnn(C)c3)cc2n1` [Example 348, 2-methyl-N-(1-(2-methyl-7-(1-methyl-1H-pyrazol-4-yl)quinolin-5-yl)cyclopropyl)-4-((oxazol-4-ylmethoxy)methyl)benzamide], for which the IC50 was less than 1 nM. As for `Cc1cc(C(=O)NCc2nccn2C)ccc1C(=O)NC1(c2cc(-c3cnn(C)c3)nc3ccccc23)CC1` [Example 253], the figure is 6 nM; as for `Cc1ccc(CN)cc1C(=O)NC1(c2cc(-c3cnn(C)c3)cc3ccccc23)CC1` [Example 75, 5-(aminomethyl)-2-methyl-N-(1-(3-(1-methyl-1H-pyrazol-4-yl)naphthalen-1-yl)cyclopropyl)benzamide], 12 nM. As for `COC[C@@H](OCc1cocn1)c1ccc(C(=O)NC2(c3cc(-c4cc(C(=O)N(C)C)n[nH]4)cc4ncccc34)CC2)c(C)c1` (single isomer, unassigned) [Example 360], the figure is 1 nM; as for `Cc1cc(C(=O)NC(C)(C)c2ncc[nH]2)ccc1C(=O)N[C@H](C)c1cc(-c2cnn(C)c2)nc2ccccc12` [Example 244], 167 nM. Turning to `Cc1ccccc1C(=O)N[C@H](C)c1cc(-c2cnn(C)c2)nc2ccccc12` [Example 49, (R)-2-methyl-N-(1-(2-(1-methyl-1H-pyrazol-4-yl)quinolin-4-yl)ethyl)benzamide], the IC50 is 151 nM.

On to `Cc1ccc(NC(=O)[C@H]2CCCCN2)cc1C(=O)NC(C)c1cc(-c2cnn(C)c2)cc2ccccc12` (stereo partly drawn) [Example 4, (2R)—N-(4-methyl-3-((1-(3-(1-methyl-1H-pyrazol-4-yl)naphthalen-1-yl)ethyl)carbamoyl)phenyl)piperidine-2-carboxamide], for which the concentration for half-maximal inhibition (IC50) amounted to 23 nM. To `Cc1ccccc1C(=O)N[C@H](C)c1cc(-c2ccnn2C)nc2ccccc12` [Example 50, (R)-2-methyl-N-(1-(2-(1-methyl-1H-pyrazol-5-yl)quinolin-4-yl)ethyl)benzamide] belongs 489 nM. Consider `Cc1ccccc1C(=O)N[C@H](C)c1cc(Nc2ccn(C)n2)nc2ccccc12` [Example 38, (R)-2-methyl-N-(1-(2-((1-methyl-1H-pyrazol-3-yl)amino)quinolin-4-yl)ethyl)benzamide], for which the half-maximal inhibitory concentration (IC50) worked out at 1630 nM. On to `Cc1ccc(CN)cc1C(=O)NC(C)c1cc(-n2cc(C(F)(F)F)nn2)nc2ccccc12` (centres unmarked) [Example 31, 5-(aminomethyl)-2-methyl-N-(1-(2-(4-(trifluoromethyl)-1H-1,2,3-triazol-1-yl)quinolin-4-yl)ethyl)benzamide], for which the half-inhibitory concentration (IC50) amounted to 674 nM. In the case of `Cc1ccccc1C(=O)NC(C)c1cc(NCCS(=O)(=O)N(C)C)nc2ccccc12` (centres unmarked) [Example 148, N-[1-(2-{[2-(dimethylsulfamoyl)ethyl]amino}quinolin-4-yl)ethyl]-2-methylbenzamide], the 50% inhibitory concentration (IC50) was found to be 1770 nM.

For `Cc1cc(C(=O)NCc2cscn2)ccc1C(=O)N[C@H](C)c1cc(-c2cnn(C)c2)nc2ccccc12` [Example 201, (R)-2-methyl-N1-(1-(2-(1-methyl-1H-pyrazol-4-yl)quinolin-4-yl)ethyl)-N4-(thiazol-4-ylmethyl)terephthalamide], the 50% inhibitory concentration (IC50) was determined as 3 nM. For `Cc1cc(COCc2cscn2)ccc1C(=O)NC1(c2cc(-c3cnn(CC(=O)N(C)C)c3)nc3ccccc23)CC1` [Example 342, N-(1-(2-(1-(2-(dimethylamino)-2-oxoethyl)-1H-pyrazol-4-yl)quinolin-4-yl)cyclopropyl)-2-methyl-4-((thiazol-4-ylmethoxy)methyl)benzamide], the half-inhibitory concentration (IC50) was less than 1 nM. As for `CNCc1ccc(C)c(C(=O)N[C@H](C)c2cc(-c3cn[nH]c3)nc3ccccc23)c1` [Example 17, (R)—N-(1-(2-(1H-pyrazol-4-yl)quinolin-4-yl)ethyl)-2-methyl-5-((methylamino)methyl)benzamide], the figure is 22 nM; as for `Cc1cc(C(=O)NCc2ncoc2C)ccc1C(=O)N[C@H](C)c1cc(-c2cnn(C)c2)nc2ccccc12` [Example 317, (R)-2-methyl-N1-(1-(2-(1-methyl-1H-pyrazol-4-yl)quinolin-4-yl)ethyl)-N4-((5-methyloxazol-4-yl)methyl)terephthalamide], 6 nM.

With `Cc1ccccc1C(=O)NC(C)c1cc(CC2CCOCC2)nc2ccccc12` (stereo in doubt) [Example 152, 2-methyl-N-[(1R)-1-{2-[(oxan-4-yl)methyl]quinolin-4-yl}ethyl]benzamide], the 50% inhibitory concentration (IC50) came to 623 nM. As for `COC[C@H](OCc1cocn1)c1ccc(C(=O)NC2(c3cc(-c4cnn(C)c4)cc4ncccc34)CC2)c(C)c1` (single isomer, unassigned) [Example 356], the IC50 came to 2 nM. As for `Cc1ccc(NC(=O)[C@H]2CCCCN2)cc1C(=O)NC(C)c1cc(-c2ccn[nH]2)cc2ccccc12` (mixture of isomers) [Example 65, (2R)-N-(3-((1-(3-(1H-pyrazol-5-yl)naphthalen-1-yl)ethyl)carbamoyl)-4-methylphenyl)piperidine-2-carboxamide], the figure is 21 nM. For `Cc1ccc(CN)cc1C(=O)NC(C)c1cc(N2CCCC2=O)nc2ccccc12` (centres unmarked) [Example 34, 5-(aminomethyl)-2-methyl-N-(1-(2-(2-oxopyrrolidin-1-yl)quinolin-4-yl)ethyl)benzamide], the 50% inhibitory concentration (IC50) was 1450 nM.

Consider `COC[C@@H](OCc1cscn1)c1ccc(C(=O)NC2(c3cc(-c4cc(C(=O)N(C)C)n[nH]4)nc4ccccc34)CC2)c(C)c1` (single isomer, unassigned) [Example 336], for which the IC50 was less than 1 nM. As for `Cc1cc(CNCc2cscn2)ccc1C(=O)NC1(c2cc(-c3cnn(C)c3)nc3ccccc23)CC1` [Example 210], the figure is 6 nM; as for `Cc1ccccc1C(=O)NC(C)c1cc(NCc2cnco2)nc2ccccc12` (centres unmarked) [Example 139, 2-methyl-N-[1-(2-{[(1,3-oxazol-5-yl)methyl]amino}-quinolin-4-yl)ethyl]benzamide], 675 nM.

As a reminder, the IC50 is the concentration needed to halve the response being measured.

The values above are taken from patent US20240245673A1, “Papain-like protease (PLpro) inhibitors” (Pfizer Inc., priority 2022, published 2024).
